Experimental data taken from publication PMC8058351, “Discovery of Kasugamycin as a Potent Inhibitor of Glycoside Hydrolase Family 18 Chitinases” (Frontiers in Molecular Biosciences, 2021).

Experiments:
[1] = target: T1, SmChiA (Serratia marcescens, UniProt P07254); test: Inhibitory activity determination with MU-β-(GlcNAc)2, Dixon plots; type: biochemical
T1 construct: made in house; host or cells: Escherichia coli BL21 (DE3)
Description: (§1) The recombinant GH18 chitinases for inhibitory activity evaluation including OfChi-h and the catalytic domains of OfChtI from Ostrinia furnacalis (O. furnacalis), human HsCht and acidic mammalian chitinase (AMCase) were extracellularly expressed in Pichia pastoris GS115. SmChiA from Serratia marcescens was expressed in Escherichia coli BL21 (DE3). All the proteins were purified from the culture medium by immobilized metal affinity chromatography (IMAC) as described previously ([Chen et al., 2014]). The purities of the target proteins were analyzed by SDS-PAGE followed by Coomassie Brilliant Blue R-250 staining.
(§2) 20 nM enzyme was incubated with 10 μL substrate [0.2 μM MU-β-(GlcNAc)2] in 20 mM sodium phosphate buffer (pH 6.0 for OfChi-h, OfChtI, HsCht and SmChiA, and pH 5.2 for AMCase) containing 2 μL inhibitor at 30°C. The reaction in the absence of inhibitor and substrate was used as the control. After 30 min, an equal volume of 0.5 M Na2CO3 was added to the reaction mixture to stop the reaction, and the fluorescence of the released MU was quantitated using an Infinite® 200 PRO microplate reader (Tecan, Swiss) with excitation and emission wavelengths of 360 and 450 nm, respectively. Experiments were performed in triplicate. For the determination of the mode of inhibition and the inhibition constant (K i) value, the reaction mixtures contained three MU-β-(GlcNAc)2 concentrations (5, 10 and 20 μM for OfChi-h, AMCase and SmChiA; 5, 7.5 and 10 μM for HsCht; and 1, 2 and 4 μM for OfChtI). The inhibitor concentration varied according to the inhibitory activity. The Ki values and types of inhibition were determined by linear fitting of data in Dixon plots.

[2] = target: T2, OfChi-h (Ostrinia furnacalis, UniProt Q4AE59); test: as above; type: biochemical
T2 construct: made in house; host or cells: Pichia pastoris GS115 (secreted)
Description: as §1, §2

[3] = target: T3, AMCase (Homo sapiens, UniProt Q9BZP6); test: as above; type: biochemical
T3 construct: the catalytic domains of OfChtI from Ostrinia furnacalis (O. furnacalis), human HsCht and acidic mammalian chitinase (AMCase); made in house; host or cells: Pichia pastoris GS115 (secreted)
Description: as §1, §2

[4] = target: T4, HsCht (Homo sapiens, UniProt Q13231); test: as above; type: biochemical
T4 construct: the catalytic domains of OfChtI from Ostrinia furnacalis (O. furnacalis), human HsCht and acidic mammalian chitinase (AMCase); made in house; host or cells: Pichia pastoris GS115 (secreted)
Description: as §1, §2

[5] = target: T5, OfChtI (Ostrinia furnacalis, UniProt Q2V6H4); test: as above; type: biochemical
Description: as §1, §2

[6] = target: T1, SmChiA; test: Tryptophan fluorescence quenching spectroscopy; type: binding
Description: as §1
(§3) All tryptophan fluorescence spectroscopy experiments were performed using the Infinite® 200 PRO microplate reader (Tecan, Swiss). The excitation wavelength was fixed to 285 nm and emission spectra were collected between 320 and 450 nm with a slit width of 2 nm. The temperature was maintained at 30°C. Fluorescence quenching experiments were performed in a 100 μL mixture containing 1 μM protein in the 20 mM sodium phosphate buffer (pH 6.0 for OfChi-h, OfChtI, HsCht and SmChiA, and pH 5.2 for AMCase), and by the successive addition of 1 μL compounds stock solution. The inhibitor concentration varied according to the enzyme activity. The dissociation constant (K d) value was analyzed by nonlinear regression with the “One Site-Specific Binding” model using GraphPad Prism 7.04.

[7] = target: T2, OfChi-h; test: Tryptophan fluorescence quenching spectroscopy; type: binding
Description: as §1, §3

[8] = target: T3, AMCase; test: Tryptophan fluorescence quenching spectroscopy; type: binding
Description: as §1, §3

[9] = target: T4, HsCht; test: Tryptophan fluorescence quenching spectroscopy; type: binding
Description: as §1, §3

[10] = target: T5, OfChtI; test: Tryptophan fluorescence quenching spectroscopy; type: binding
Description: as §1, §3

T5 sequence (Q2V6H4 19-407): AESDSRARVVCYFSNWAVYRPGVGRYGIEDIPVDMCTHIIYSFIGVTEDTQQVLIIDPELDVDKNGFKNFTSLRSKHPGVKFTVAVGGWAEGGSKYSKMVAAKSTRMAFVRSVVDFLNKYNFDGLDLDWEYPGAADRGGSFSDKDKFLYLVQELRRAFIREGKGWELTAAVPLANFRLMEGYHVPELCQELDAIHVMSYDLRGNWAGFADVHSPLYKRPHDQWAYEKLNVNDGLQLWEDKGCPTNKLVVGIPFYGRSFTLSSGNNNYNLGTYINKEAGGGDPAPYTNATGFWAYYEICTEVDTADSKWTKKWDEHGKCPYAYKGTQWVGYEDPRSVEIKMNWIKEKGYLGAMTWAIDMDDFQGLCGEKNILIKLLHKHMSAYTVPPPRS
T2 sequence (Q4AE59 18-553): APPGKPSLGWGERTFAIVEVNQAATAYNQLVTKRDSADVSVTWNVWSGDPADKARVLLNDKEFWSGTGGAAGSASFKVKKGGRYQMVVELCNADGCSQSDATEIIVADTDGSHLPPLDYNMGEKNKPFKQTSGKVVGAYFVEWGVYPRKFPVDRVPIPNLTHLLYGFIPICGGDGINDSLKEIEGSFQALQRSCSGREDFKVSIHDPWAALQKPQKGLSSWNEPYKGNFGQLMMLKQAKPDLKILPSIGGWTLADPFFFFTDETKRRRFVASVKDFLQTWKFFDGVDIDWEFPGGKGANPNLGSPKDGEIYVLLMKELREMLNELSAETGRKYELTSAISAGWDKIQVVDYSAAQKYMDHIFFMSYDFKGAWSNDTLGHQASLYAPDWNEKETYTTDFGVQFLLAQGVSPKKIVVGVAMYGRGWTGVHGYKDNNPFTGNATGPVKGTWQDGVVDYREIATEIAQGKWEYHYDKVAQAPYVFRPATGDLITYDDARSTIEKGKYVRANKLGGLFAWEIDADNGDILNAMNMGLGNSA
T1 sequence (P07254 24-563): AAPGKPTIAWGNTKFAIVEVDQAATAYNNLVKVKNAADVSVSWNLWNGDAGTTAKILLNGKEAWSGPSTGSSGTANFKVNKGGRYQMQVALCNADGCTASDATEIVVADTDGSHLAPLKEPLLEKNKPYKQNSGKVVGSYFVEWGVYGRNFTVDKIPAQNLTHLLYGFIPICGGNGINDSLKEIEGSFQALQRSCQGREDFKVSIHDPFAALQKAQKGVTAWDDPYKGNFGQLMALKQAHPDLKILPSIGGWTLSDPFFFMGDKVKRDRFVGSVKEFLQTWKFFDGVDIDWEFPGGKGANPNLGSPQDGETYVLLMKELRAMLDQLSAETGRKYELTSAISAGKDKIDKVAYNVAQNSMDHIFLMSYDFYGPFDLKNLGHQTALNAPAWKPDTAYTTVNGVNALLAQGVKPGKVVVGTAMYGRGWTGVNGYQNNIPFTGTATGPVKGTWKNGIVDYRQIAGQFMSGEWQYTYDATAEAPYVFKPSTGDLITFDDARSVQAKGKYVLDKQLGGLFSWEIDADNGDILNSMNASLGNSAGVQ
T4 sequence (Q13231 22-388 limits assumed): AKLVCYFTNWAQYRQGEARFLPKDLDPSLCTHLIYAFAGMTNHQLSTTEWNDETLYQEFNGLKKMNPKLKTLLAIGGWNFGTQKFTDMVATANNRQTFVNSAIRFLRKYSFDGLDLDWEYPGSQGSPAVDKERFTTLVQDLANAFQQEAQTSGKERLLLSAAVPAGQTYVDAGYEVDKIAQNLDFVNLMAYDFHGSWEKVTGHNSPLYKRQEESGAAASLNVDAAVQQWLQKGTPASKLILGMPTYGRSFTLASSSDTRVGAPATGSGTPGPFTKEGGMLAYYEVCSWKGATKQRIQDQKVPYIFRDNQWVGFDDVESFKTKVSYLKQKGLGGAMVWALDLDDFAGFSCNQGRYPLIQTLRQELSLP
T3 sequence (Q9BZP6 22-390 limits assumed): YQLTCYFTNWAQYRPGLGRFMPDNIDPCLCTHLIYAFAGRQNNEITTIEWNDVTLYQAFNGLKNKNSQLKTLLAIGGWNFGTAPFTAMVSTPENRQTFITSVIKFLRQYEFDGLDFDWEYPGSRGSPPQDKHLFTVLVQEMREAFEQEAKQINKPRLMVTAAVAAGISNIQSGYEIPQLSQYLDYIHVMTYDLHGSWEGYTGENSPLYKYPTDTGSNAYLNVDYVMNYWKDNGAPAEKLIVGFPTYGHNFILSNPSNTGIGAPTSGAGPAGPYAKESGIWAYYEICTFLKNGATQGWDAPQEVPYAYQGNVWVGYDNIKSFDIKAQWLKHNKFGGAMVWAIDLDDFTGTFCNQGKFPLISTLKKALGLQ

## C[C@H]1O[C@H](O[C@H]2[C@H](O)[C@@H](O)[C@@H](O)[C@H](O)[C@@H]2O)[C@@H](N)C[C@@H]1NC(=N)C(=O)O [kasugamycin, Kasugamycin]
[1]
  Ki: 29 µM
[1]; SmChiA, inhibition kinetics
  mode of inhibition: competitive
[2]
  Ki: 2.7 µM
[2]; OfChi-h, inhibition kinetics
  mode of inhibition: competitive
[3]
  Ki: 6.27 µM
[3]; AMCase, inhibition kinetics
  mode of inhibition: competitive
[4]; 1.0 M NaCl vs. standard buffer
  increase of K i in buffer containing 1.0 M NaCl: 6 fold
[4]; K i in the buffer with 1.0 M NaCl, buffer containing 1.0 M NaCl
  Ki: 1.62 µM
[4]; K i, 20 mM sodium phosphate buffer pH 6.0, 30°C
  Ki: 0.25 µM
[4]; inhibition kinetics
  mode of inhibition: competitive
[5]
  Ki: 0.47 µM
[5]; OfChtI, inhibition kinetics
  mode of inhibition: competitive
[5]; at 10 μM, preliminary screening of a natural products library, read-out: inhibition against OfChtI
  inhibition at 10 µM: 92.5%
[6]
  Kd: 34.1 µM
[7]
  Kd: 11.5 µM
[8]
  Kd: 15.8 µM
[9]
  Kd: 0.92 µM
[10]
  Kd: 3.96 µM
